In article PMC12733967, “Pleiotropic Function of Antenna-Specific Odorant-Binding Protein Links Xenobiotic Adaptation and Olfaction in Leptinotarsa decemlineata” (Insects, 2025):

Assays:
LdecOBP33 [1] = assay: Saturation fluorescence binding assay of 1-NPN with recombinant LdecOBP33; parameters: species or system Leptinotarsa decemlineata; conditions: 2 µM LdecOBP33, 1-NPN 0-25 µM, 20 mM Tris pH 7.4, 25 °C; one-site saturation binding accounting for ligand depletion; read-out: dissociation constant (Kd)
Experimental: (§1) N-phenyl-1-naphthylamine (1-NPN) was used as a fluorescent reporter to assess the ligand-binding affinity of LdecOBP33 toward various plant volatiles and pesticides; this was chosen due to its reported success in prior studies. […] Each assay was performed at 25 ± 1 °C in a 96-well flat-bottom black plate with a final volume of 200 µL and 3 replicates. The relative fluorescence intensity was measured with a 337 nm/10 nm excitation filter and a 413 nm/10 nm emission filter, using a multi-mode Tecan Spark® plate reader. […] The equation Ki=IC50/(1+NPN/KdNPN) was used to calculate the Ki values of the competitor ligands.

LdecOBP33 [2] = assay: Competitive fluorescence displacement binding assay (1-NPN reporter); parameters: species or system Leptinotarsa decemlineata; conditions: for IC50 / displacement of the 1-NPN probe: 2 µM LdecOBP33, 2 µM 1-NPN; for IC50: competitor 0-450 µM, 20 mM Tris pH 7.4, 25 °C, mean ± SE (n = 3); for displacement of the 1-NPN probe: competitor up to 450 µM; for Ki: calculated from IC50 with Cheng and Prusoff equation, Ki=IC50/(1+NPN/KdNPN)
Experimental: as §1

[3] = ref PubChem database (accessed on 31 October 2025); cited from earlier work
CPB [4] = assay: Whole-antenna contact bioassay with imidacloprid; type: in vivo, Leptinotarsa decemlineata; conditions: for mortality: after 36 h; for mortality / average mortality: 0.5 µL of 0.45 µg/µL per antenna
Experimental: After feeding with RNAi, the control or LdecOBP33 knockdown male CPBs were placed individually into fresh Petri dishes and anesthetized on ice for 10 min. Afterwards, 0.5 µL of an imidacloprid solution (Sigma Aldrich, St. Louis, MO, USA)—at various concentrations—in acetone was topically applied to each antenna of each CPB using a Hamilton 25 µL model #702 syringe (Hamilton, Reno, NV, USA). Care was taken to ensure that the pesticide solution was applied exclusively to the antennae. […] After treatment, all CPBs were placed in a fresh Petri dish with fresh potato leaves; the dish was kept in a rearing room maintained at 25 ± 1 °C, 60 ± 5% humidity, and a 16:8 L/D photoperiod. CPB mortality was assessed at 0, 3, 6, and 12 h, and every 12 h thereafter, for a total of five days post-treatment. The determination of recovery for individual CPBs after pesticide treatment was adapted from prior studies using three criteria. […] Second, beetles were placed prone and given two minutes to flip upright; those unable to do so were classified as dead. Finally, beetles were placed upside down on the handle of a paintbrush to assess their mobility; individuals that could not walk their full body length or fell off were considered dead. Six biological replicates were conducted, each consisting of 8–10 beetles.

CPB [5] = assay: Baseline mortality exposure to imidacloprid in adults, resistant vs susceptible strains; type: in vivo, Leptinotarsa decemlineata
From the text: Two different populations of CPBs were used for this study. The susceptible CPB population was purchased from French Agricultural Research (Lamberton, MN, USA). This population was initially collected in 2003 from Long Island, NY; following this, it was reared in laboratory conditions with no pesticide exposure. Neonicotinoid-resistant CPBs were collected from the University of Maine Aroostook Research Farm (Presque Isle, ME, USA). Baseline mortality exposure to imidacloprid in adults indicated a ~30-fold resistance ratio between the resistant and susceptible strains. Both CPB populations were reared in a Penn State facility greenhouse at 25 ± 1 °C under a 16:8 L/D photoperiod. Beetles were fed a constant supply of Red Norland potato plants and housed in insect and butterfly habitat cages (Restcloud, Guangzhou, China). Eggs were collected from plants and stored in Petri dishes maintained at 25 ± 1 °C and 60 ± 5% humidity under a 16:8 L/D photoperiod, located within a rearing room. Newly emerged first-instar larvae fed upon fresh potato plant leaflets up to the third instar and were then transferred back to the greenhouse.

Question: For c1ccc(Nc2cccc3ccccc23)cc1 [1-NPN, N-phenyl-1-naphthylamine], which Kd (LdecOBP33 [1]) is on record?
Answer: 4.53 ± 0.31 µM

Question: For CCC/C=C/C=O [(E)-2-Hexenal], which IC50 (LdecOBP33 [2]) is on record?
Answer: 401 ± 16.3 µM

Question: And the “displacement of the 1-NPN probe” value (LdecOBP33 [2])?
Answer: over 50%

Question: And the Ki (LdecOBP33 [2])?
Answer: 301 µM

Question: What about the LogP [3] of the same compound?
Answer: 1.50

Question: What does the source list for CC/C=C/CCO [(E)-3-Hexen-1-ol]?
Answer: IC50 (LdecOBP33 [2]): > 450 µM; displacement of the 1-NPN probe (LdecOBP33 [2]): No noticeable displacement; Ki (LdecOBP33 [2]): > 338 µM; LogP [3]: 1.30

Question: What does the source list for CC/C=C\CCOC(=O)CCC [(Z)-3-Hexenyl-butyrate]?
Answer: IC50 (LdecOBP33 [2]): 24 ± 2.05 µM; displacement of the 1-NPN probe (LdecOBP33 [2]): over 50%; Ki (LdecOBP33 [2]): 18 µM

Question: Which IC50 (LdecOBP33 [2]) does the source give for CNC(=O)Oc1cccc2ccccc12 [Carbaryl] here?
Answer: > 450 µM

Question: And the “displacement of the 1-NPN probe” value (LdecOBP33 [2])?
Answer: No noticeable displacement

Question: What about the Ki (LdecOBP33 [2]) of the same compound?
Answer: > 338 µM

Question: For COP(=S)(OC)Oc1nc(Cl)c(Cl)cc1Cl [Chlorpyrifos-methyl], which IC50 (LdecOBP33 [2]) is on record?
Answer: 63.7 ± 3.32 µM

Question: And the “displacement of the 1-NPN probe” value (LdecOBP33 [2])?
Answer: over 50%

Question: What about the Ki (LdecOBP33 [2]) of the same compound?
Answer: 47.8 µM

Question: What about the LogP [3] of the same compound?
Answer: 4.30

Question: For CCOP(=S)(OCC)Oc1nc(Cl)c(Cl)cc1Cl [Chlorpyrifos], which IC50 (LdecOBP33 [2]) is on record?
Answer: 45.8 ± 3.53 µM

Question: And the “displacement of the 1-NPN probe” value (LdecOBP33 [2])?
Answer: over 50%

Question: And the Ki (LdecOBP33 [2])?
Answer: 34.4 µM

Question: And the LogP [3]?
Answer: 4.96

Question: With CN/C(=N\[N+](=O)[O-])NCc1cnc(Cl)s1 [Clothianidin] as the compound, how does the IC50 (LdecOBP33 [2]) read?
Answer: 94.5 ± 4.24 µM

Question: And the “displacement of the 1-NPN probe” value (LdecOBP33 [2])?
Answer: over 50%

Question: What about the Ki (LdecOBP33 [2]) of the same compound?
Answer: 71 µM

Question: What about the LogP [3] of the same compound?
Answer: 0.70

Question: Which IC50 (LdecOBP33 [2]) does the source give for OC[C@H]1OC(O)[C@H](O)[C@@H](O)[C@@H]1O (stereo partly drawn) [D-Glucose] here?
Answer: > 450 µM

Question: And the “displacement of the 1-NPN probe” value (LdecOBP33 [2])?
Answer: No noticeable displacement

Question: And the Ki (LdecOBP33 [2])?
Answer: > 338 µM

Question: For O=[N+]([O-])NC1=NCCN1Cc1ccc(Cl)nc1 [Imidacloprid], which IC50 (LdecOBP33 [2]) is on record?
Answer: 263 ± 15.2 µM

Question: And the “displacement of the 1-NPN probe” value (LdecOBP33 [2])?
Answer: over 50%

Question: What about the Ki (LdecOBP33 [2]) of the same compound?
Answer: 197 µM

Question: And the “increase of mortality, dsLdecOBP33-treated vs control” value (CPB [4]; by 120 h)?
Answer: 19%

Question: And the mortality (CPB [4]; control (dsGFP) resistant males)?
Answer: 55%

Question: And the average mortality (CPB [4]; control (dsGFP) resistant males, by 120 h)?
Answer: 12%

Question: And the mortality (CPB [4]; dsLdecOBP33-KD resistant males)?
Answer: 81%

Question: And the average mortality (CPB [4]; dsLdecOBP33-treated resistant males, by 120 h)?
Answer: 32%

Question: What about the LD50 (CPB [4]; preliminary tests, 0.5 µL application in acetone to each antenna) of the same compound?
Answer: 0.45 µg/µL

Question: What about the “resistance ratio between the resistant and susceptible strains” value (CPB [5]) of the same compound?
Answer: ~ 30 fold

Question: What about the LogP [3] of the same compound?
Answer: 0.57

Question: What does the source list for C=C[C@](C)(O)CCC=C(C)C [L-Linalool]?
Answer: IC50 (LdecOBP33 [2]): 48.3 ± 1.77 µM; displacement of the 1-NPN probe (LdecOBP33 [2]): over 50%; Ki (LdecOBP33 [2]): 36.2 µM

Question: With COC(=O)c1ccccc1O [Methyl salicylate] as the compound, how does the IC50 (LdecOBP33 [2]) read?
Answer: 396 ± 20 µM

Question: What about the “displacement of the 1-NPN probe” value (LdecOBP33 [2]) of the same compound?
Answer: over 50%

Question: And the Ki (LdecOBP33 [2])?
Answer: 298 µM

Question: What about the LogP [3] of the same compound?
Answer: 2.50

Question: What does the source list for CCCCCCCCC=O [Nonanal]?
Answer: IC50 (LdecOBP33 [2]): 7.29 ± 0.53 µM; displacement of the 1-NPN probe (LdecOBP33 [2]): over 50%; LogP [3]: 3.30

Question: For CC(C)=CC1C(C(=O)OCN2C(=O)C3=C(CCCC3)C2=O)C1(C)C (stereo not shown) [Tetramethrin], which IC50 (LdecOBP33 [2]) is on record?
Answer: 29.1 ± 1.78 µM

Question: What about the “displacement of the 1-NPN probe” value (LdecOBP33 [2]) of the same compound?
Answer: over 50%

Question: What about the Ki (LdecOBP33 [2]) of the same compound?
Answer: 21.8 µM

Question: And the LogP [3]?
Answer: 4.70
